B1: Folylpolyglutamate synthase, mitochondrial (Homo sapiens), Q05932 (protein)
chain: MSRARSHLRAALFLAAASARGITTQVAARRGLSAWPVPQEPSMEYQDAVRMLNTLQTNAGYLEQVKRQRGDPQTQLEAMELYLARSGLQVEDLDRLNIIHVTGTKGKGSTCAFTECILRSYGLKTGFFSSPHLVQVRERIRINGQPISPELFTKYFWRLYHRLEETKDGSCVSMPPYFRFLTLMAFHVFLQEKVDLAVVEVGIGGAYDCTNIIRKPVVCGVSSLGIDHTSLLGDTVEKIAWQKGGIFKQGVPAFTVLQPEGPLAVLRDRAQQISCPLYLCPMLEALEEGGPPLTLGLEGEHQRSNAALALQLAHCWLQRQDRHGAGEPKASRPGLLWQLPLAPVFQPTSHMRLGLRNTEWPGRTQVLRRGPLTWYLDGAHTASSAQACVRWFRQALQGRERPSGGPEVRVLLFNATGDRDPAALLKLLQPCQFDYAVFCPNLTEVSSTGNADQQNFTVTLDQVLLRCLEHQQHWNHLDEEQASPDLWSAPSPEPGGSASLLLAPHPPHTCSASSLVFSCISHALQWISQGRDPIFQPPSPPKGLLTHPVAHSGASILREAAAIHVLVTGSLHLVGGVLKLLEPALSQ

What was measured:
ACHN = assay: Cytotoxicity evaluation against ACHN renal cancer cells; type: functional; details: Homo sapiens
SF-539 = assay: Cytotoxicity evaluation against SF-539 CNS cancer cells; type: functional; details: Homo sapiens
OVCAR-4 = assay: Cytotoxicity evaluation against OVCAR-4 cells; type: functional; details: Homo sapiens
MDA-MB-435 = assay: Cytotoxicity evaluation against MDA-MB-435 breast cancer cells; type: functional; details: Homo sapiens
Thymidylate synthase [1] = biological target: Thymidylate synthase (Lactobacillus casei, UniProt P00469); assay: Compound was evaluated as inhibitor of Lactobacillus casei thymidylate synthase; parameters: species or system Lacticaseibacillus casei
Chain of Thymidylate synthase (Lactobacillus casei, UniProt P00469) (P00469 whole entry): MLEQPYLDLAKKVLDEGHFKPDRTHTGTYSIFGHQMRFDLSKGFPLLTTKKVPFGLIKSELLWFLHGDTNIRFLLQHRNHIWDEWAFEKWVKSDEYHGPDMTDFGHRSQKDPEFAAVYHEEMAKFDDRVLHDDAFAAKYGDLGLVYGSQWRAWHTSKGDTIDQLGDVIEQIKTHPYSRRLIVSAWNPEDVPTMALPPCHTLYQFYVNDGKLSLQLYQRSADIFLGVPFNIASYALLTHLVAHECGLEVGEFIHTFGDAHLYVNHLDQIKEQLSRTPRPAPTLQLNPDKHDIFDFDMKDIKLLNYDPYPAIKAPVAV

K562 = assay: Cytotoxicity evaluation against K-562 Leukemia cells; type: functional; details: Homo sapiens
NCI-H226 = assay: Cytotoxicity evaluation against NCI-H226 non-small-cell lung cancer cells; type: functional; details: Homo sapiens
HT-29 = assay: Cytotoxicity evaluation against HT-29 colon cancer cells; type: functional; details: Homo sapiens
NCI-H460 = assay: Cytotoxicity evaluation against NCI-H460 non-small-cell lung cancer cells; type: functional; details: Homo sapiens
R30dm-CCRF-CEM = assay: Growth inhibition of MTX-resistant subline R30dm-CCRF-CEM Human Leukemia Cell was determined; type: functional, cell-based
Thymidylate synthase [2] = biological target: Thymidylate synthase (Homo sapiens, UniProt P04818); assay: Compound was evaluated as inhibitor of human thymidylate synthase
Chain of Thymidylate synthase (Homo sapiens, UniProt P04818) (P04818 whole entry): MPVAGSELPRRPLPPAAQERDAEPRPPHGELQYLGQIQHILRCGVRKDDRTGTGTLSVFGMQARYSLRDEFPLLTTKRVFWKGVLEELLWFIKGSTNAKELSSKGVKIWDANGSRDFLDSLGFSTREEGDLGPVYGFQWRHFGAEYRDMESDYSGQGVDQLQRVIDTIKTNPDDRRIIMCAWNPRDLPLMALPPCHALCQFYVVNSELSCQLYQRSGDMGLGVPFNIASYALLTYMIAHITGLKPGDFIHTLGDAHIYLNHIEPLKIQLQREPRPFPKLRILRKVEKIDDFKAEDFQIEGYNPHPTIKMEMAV

HL-60 = assay: Cytotoxicity evaluation against HL-60 Leukemia cells; type: functional; details: Homo sapiens
HCT-15 = assay: Cytotoxicity evaluation against HCT-15 colon cancer cells; type: functional; details: Homo sapiens
SN12C = assay: Cytotoxicity evaluation against SN12C renal cancer cells; type: functional; details: Homo sapiens
MDA-N = assay: Cytotoxicity evaluation against […] breast cancer cells; type: functional; details: Homo sapiens
A549 = assay: Cytotoxicity evaluation against A549/ATCC non-small-cell lung cancer cells; type: functional; details: Homo sapiens
MOLT-4 = assay: Cytotoxicity evaluation against MOLT-4 Leukemia cells; type: functional; details: Homo sapiens
UACC-257 = assay: Cytotoxicity evaluation against UACC-257 melanoma cells; type: functional; details: Homo sapiens
SW-620 = assay: Cytotoxicity evaluation against SW-620 colon cancer cells; type: functional; details: Homo sapiens
R2-CCRF-CEM = assay: Growth inhibition of MTX-resistant subline R2-CCRF-CEM Human Leukemia Cell was determined; type: functional, cell-based
R1-CCRF-CEM = assay: Growth inhibition of MTX-resistant subline R1-CCRF-CEM Human Leukemia Cell was determined; type: functional, cell-based
MCF7 = assay: Cytotoxicity evaluation against MCF-7 breast cancer cells; type: functional; details: Homo sapiens
UACC-62 = assay: Cytotoxicity evaluation against UACC-62 melanoma cells; type: functional; details: Homo sapiens
LOX IMVI = assay: Cytotoxicity evaluation against LOX IMVI melanoma cells; type: functional; details: Homo sapiens
CCRF-CEM = assay: Growth inhibition of CCRF-CEM Human Leukemia Cell was determined; type: functional, cell-based
[3] = biological target: Dihydrofolate reductase (Homo sapiens) (UniProt P00374); assay: Compound was evaluated as inhibitor of human Dihydrofolate reductase; details: concentration not given here
Chain of Dihydrofolate reductase (Homo sapiens) (P00374 whole entry): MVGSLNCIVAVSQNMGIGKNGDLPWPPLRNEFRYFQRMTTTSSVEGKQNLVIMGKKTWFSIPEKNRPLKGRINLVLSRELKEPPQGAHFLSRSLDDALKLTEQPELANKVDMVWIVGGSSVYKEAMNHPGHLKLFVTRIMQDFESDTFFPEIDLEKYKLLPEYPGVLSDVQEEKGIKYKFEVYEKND

Thymidylate synthase [4] = biological target: Thymidylate synthase (Escherichia coli, UniProt C3SWJ7); assay: Compound was evaluated as inhibitor of Escherichia coli thymidylate synthase
Chain of Thymidylate synthase (Escherichia coli, UniProt C3SWJ7) (C3SWJ7 whole entry): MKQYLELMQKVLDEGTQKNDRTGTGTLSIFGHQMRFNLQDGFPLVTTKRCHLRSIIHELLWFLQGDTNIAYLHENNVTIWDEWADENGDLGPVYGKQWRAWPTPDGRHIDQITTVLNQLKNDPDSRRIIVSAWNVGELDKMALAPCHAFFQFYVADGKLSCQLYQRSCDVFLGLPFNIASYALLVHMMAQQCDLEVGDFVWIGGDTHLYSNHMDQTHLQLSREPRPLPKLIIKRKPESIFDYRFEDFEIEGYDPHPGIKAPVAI

Dihydrofolate reductase = Dihydrofolate reductase (Homo sapiens, UniProt P00374)
Chain of Dihydrofolate reductase (P00374 whole entry): as the sequence (P00374 whole entry) above

[5] = substrate: CCc1[nH]c(N)nc2nc(C)c(CCc3ccc(C(=O)N[C@@H](CCC(=O)O)C(=O)O)cc3)c1-2; assay: (§1) Activity of compound calculated as Km was tested as substrate for human Folyl-polyglutamate synthase
[6] = substrate: CCc1[nH]c(N)nc2ncc(CCc3ccc(C(=O)N[C@@H](CCC(=O)O)C(=O)O)cc3)c1-2; assay: as §1
[7] = substrate: CCc1[nH]c(N)nc2nc(C)c(CCc3ccc(C(=O)N[C@@H](CCC(=O)O)C(=O)O)cc3)c1-2; assay: (§2) Activity of compound calculated as maximum activity of substrate for human Folyl-polyglutamate synthase relative to the maximum activity for aminopterin
[8] = substrate: Nc1nc(N)c2nc(CNc3ccc(C(=O)N[C@@H](CCC(=O)O)C(=O)O)cc3)cnc2n1; assay: as §2
[9] = substrate: CCc1[nH]c(N)nc2ncc(CCc3ccc(C(=O)N[C@@H](CCC(=O)O)C(=O)O)cc3)c1-2; assay: as §2
[10] = substrate: Cc1nc(N)nc2[nH]cc(CCc3ccc(C(=O)N[C@@H](CCC(=O)O)C(=O)O)cc3)c12; assay: as §2

| Molecule | GI50 (ACHN) [nM] | GI50 (SF-539) [nM] | GI50 (OVCAR-4) [nM] | GI50 (MDA-MB-435) [nM] | GI50 (K562) [nM] | GI50 (NCI-H226) [nM] | GI50 (HT-29) [nM] | GI50 (NCI-H460) [nM] | EC50 (R30dm-CCRF-CEM) [nM] | IC50 (Thymidylate synthase [2]) [nM] | GI50 (HL-60) [nM] | GI50 (HCT-15) [nM] | GI50 (SN12C) [nM] | GI50 (MDA-N) [nM] | GI50 (UACC-257) [nM] | GI50 (SW-620) [nM] | EC50 (R2-CCRF-CEM) [nM] | EC50 (R1-CCRF-CEM) [nM] | GI50 (UACC-62) [nM] | GI50 (LOX IMVI) [nM] | other results |
| --- | --- | --- | --- | --- | --- | --- | --- | --- | --- | --- | --- | --- | --- | --- | --- | --- | --- | --- | --- | --- | --- |
| CCc1[nH]c(N)nc2nc(C)c(CCc3ccc(C(=O)N[C@@H](CCC(=O)O)C(=O)O)cc3)c1-2 | > 100000 | > 100000 | > 100000 | > 100000 | 143 | > 100000 | > 100000 | > 100000 | > 20000 | 9000 | < 10 | > 100000 | > 100000 | > 100000 | > 100000 | > 100000 | > 10000 | > 20000 | > 100000 | 98600 | IC50 (Thymidylate synthase [1]): > 100000 nM; GI50 (A549): > 100000 nM; GI50 (MOLT-4): 100 nM; GI50 (MCF7): > 100000 nM; EC50 (CCRF-CEM): > 10000 nM; inhibition [3]: 14% |
| CN(Cc1cnc2nc(N)nc(N)c2n1)c1ccc(C(=O)N[C@@H](CCC(=O)O)C(=O)O)cc1 [METHOTREXATE] |  |  |  |  |  |  |  |  | 12.8 |  |  |  |  |  |  |  | 2630 | 985 |  |  |  |
| CCc1nc(N)nc2[nH]cc(CCc3ccc(C(=O)N[C@@H](CCC(=O)O)C(=O)O)cc3)c12 | 169 | < 10 | < 10 | < 10 | < 10 | < 10 | < 10 | < 10 | 18.5 | 80000 | < 10 | < 10 | < 10 | < 10 | < 10 | < 10 | 750 | 695 | < 10 | < 10 | GI50 (A549): < 10 nM; IC50 (Thymidylate synthase [4]): 80000 nM; GI50 (MOLT-4): > 100000 nM; GI50 (MCF7): < 10 nM; EC50 (CCRF-CEM): 15 nM |
| Cc1nc(N)nc2[nH]cc(CCc3ccc(C(=O)N[C@@H](CCC(=O)O)C(=O)O)cc3)c12 |  |  | > 100000 | > 100000 | 14700 |  | > 100000 |  | 18.5 |  | < 10 | > 100000 | > 100000 | > 100000 | > 100000 | > 100000 | 575 | 158 | > 100000 | 11500 | IC50 (Dihydrofolate reductase): 1200 nM |
| B1 |  |  |  |  |  |  |  |  |  |  |  |  |  |  |  |  |  |  |  |  | Km [5]: 96 µM; Km [6]: < 2 µM; relative Vmax [7]: 0.1; Vmax [8]: 1 µM; relative Vmax [9]: 0.23; relative Vmax [10]: 0.17 |

Reference: ChEMBL document CHEMBL1145967, “Design, synthesis, and biological activities of classical N-[4-[2-(2-amino-4-ethylpyrrolo[2,3-d]pyrimidin-5-yl)ethyl]benzoyl]-l-glutamic acid and its 6-methyl derivative as potential dual inhibitors of thymidylate synthase and dihydrofolate reductase and as potential antitumor agents” (J Med Chem, 2003)
